ChEMBL document CHEMBL1146200, “In vitro activity of aurein 1.2 alone and in combination with antibiotics against gram-positive nosocomial cocci” (Antimicrob Agents Chemother, 2007)
≈ marks a conversion by molar mass, not a printed value. Non-standard residues stand in square brackets, D forms with d. Residues, ends and D or L forms follow the SMILES beside them. Phg = N[C@H](C(=O)O)c1ccccc1

Legend:
Enterococcus faecalis [1] = assay: Antimicrobial activity against vancomycin-susceptible Enterococcus faecalis ATCC 29212; format: functional; conditions: for MIC50 / MIC90: Enterococcus faecalis, ATCC 29212
Enterococcus faecalis [2] = assay: Antimicrobial activity against vancomycin-resistant Enterococcus faecalis ATCC 51299; format: functional; conditions: for MIC50 / MIC90: Enterococcus faecalis, ATCC 51299
A549 = assay: Cytotoxicity against human A549 cells; format: cell-based
Staphylococcus aureus [3] = assay: Antimicrobial activity against […] Staphylococcus aureus ATCC 29213; format: functional; conditions: for MIC50 / MIC90: Staphylococcus aureus, ATCC 29213
Staphylococcus aureus [4] = assay: Antimicrobial activity against […] Staphylococcus aureus ATCC 43300; format: functional; conditions: for MIC50 / MIC90: Staphylococcus aureus, ATCC 43300
Streptococcus pyogenes = assay: Antimicrobial activity against Streptococcus pyogenes ATCC 19615; format: functional; conditions: for MIC50 / MIC90: Streptococcus pyogenes, ATCC 19615

Row | Compound | MBC50 (Enterococcus faecalis [1]) [µg/mL] | MBC90 (Enterococcus faecalis [1]) [µg/mL] | MIC50 (Enterococcus faecalis [1]) [µg/mL] | MIC90 (Enterococcus faecalis [1]) [µg/mL] | MBC50 (Enterococcus faecalis [2]) [µg/mL] | MBC90 (Enterococcus faecalis [2]) [µg/mL] | MIC50 (Enterococcus faecalis [2]) [µg/mL] | MIC90 (Enterococcus faecalis [2]) [µg/mL] | MBC50 (Staphylococcus aureus [3]) [µg/mL] | MBC90 (Staphylococcus aureus [3]) [µg/mL] | MIC50 (Staphylococcus aureus [3]) [µg/mL] | MIC90 (Staphylococcus aureus [3]) [µg/mL] | MBC50 (Staphylococcus aureus [4]) [µg/mL] | MBC90 (Staphylococcus aureus [4]) [µg/mL] | MIC50 (Staphylococcus aureus [4]) [µg/mL] | MIC90 (Staphylococcus aureus [4]) [µg/mL] | MBC50 (Streptococcus pyogenes) [µg/mL] | MBC90 (Streptococcus pyogenes) [µg/mL] | MIC50 (Streptococcus pyogenes) [µg/mL] | MIC90 (Streptococcus pyogenes) [µg/mL] | also measured
1 | CC[C@H](C)[C@H](NC(=O)[C@H](CCCCN)NC(=O)[C@H](CCCCN)NC(=O)[C@@H](NC(=O)[C@@H](NC(=O)[C@H](CC(=O)O)NC(=O)[C@H](Cc1ccccc1)NC(=O)[C@H](CC(C)C)NC(=O)CN)[C@@H](C)CC)[C@@H](C)CC)C(=O)N[C@@H](C)C(=O)N[C@@H](CCC(=O)O)C(=O)N[C@@H](CO)C(=O)N[C@H](C(N)=O)c1ccccc1 (H-GLFDIIKKIAES[Phg]-NH2) | 16 (≈ 10.9 µM) | 32 (≈ 21.8 µM) | 8 (≈ 5.46 µM) | 16 (≈ 10.9 µM) | 16 (≈ 10.9 µM) | 32 (≈ 21.8 µM) | 8 (≈ 5.46 µM) | 16 (≈ 10.9 µM) | 8 (≈ 5.46 µM) | 16 (≈ 10.9 µM) | 4 (≈ 2.73 µM) | 8 (≈ 5.46 µM) | 8 (≈ 5.46 µM) | 16 (≈ 10.9 µM) | 4 (≈ 2.73 µM) | 8 (≈ 5.46 µM) | 4 (≈ 2.73 µM) | 8 (≈ 5.46 µM) | 2 (≈ 1.36 µM) | 4 (≈ 2.73 µM) | Activity (A549): 2%
2 | CC[C@H]1OC(=O)[C@H](C)[C@@H](O[C@H]2C[C@@](C)(OC)[C@@H](O)[C@H](C)O2)[C@H](C)[C@@H](O[C@@H]2O[C@H](C)C[C@H](N(C)C)[C@H]2O)[C@](C)(OC)C[C@@H](C)C(=O)[C@H](C)[C@@H](O)[C@]1(C)O [CLARITHROMYCIN] | 16 (≈ 21.4 µM) | 128 (≈ 171 µM) | 8 (≈ 10.7 µM) | 32 (≈ 42.8 µM) | 32 (≈ 42.8 µM) |  | 16 (≈ 21.4 µM) | 64 (≈ 85.6 µM) | 32 (≈ 42.8 µM) |  | 4 (≈ 5.35 µM) | 16 (≈ 21.4 µM) | 16 (≈ 21.4 µM) | 64 (≈ 85.6 µM) | 2 (≈ 2.67 µM) | 8 (≈ 10.7 µM) | 8 (≈ 10.7 µM) | 32 (≈ 42.8 µM) | 2 (≈ 2.67 µM) | 8 (≈ 10.7 µM) | 
3 | C[C@@H](O)[C@H]1C(=O)N2C(C(=O)O)=C(SCCNC=N)C[C@H]12 [IMIPENEM ANHYDROUS] | 16 (≈ 53.4 µM) | 64 (≈ 214 µM) | 4 (≈ 13.4 µM) | 16 (≈ 53.4 µM) | 32 (≈ 107 µM) | 128 (≈ 428 µM) | 16 (≈ 53.4 µM) | 32 (≈ 107 µM) | 64 (≈ 214 µM) | 256 (≈ 855 µM) | 16 (≈ 53.4 µM) | 128 (≈ 428 µM) | 4 (≈ 13.4 µM) | 16 (≈ 53.4 µM) | 1 (≈ 3.34 µM) | 4 (≈ 13.4 µM) | 1 (≈ 3.34 µM) | 4 (≈ 13.4 µM) | 0.5 (≈ 1.67 µM) | 1 (≈ 3.34 µM) | 
4 | CC(=O)NC[C@H]1CN(c2ccc(N3CCOCC3)c(F)c2)C(=O)O1 [LINEZOLID] | 2 (≈ 5.93 µM) | 4 (≈ 11.9 µM) | 1 (≈ 2.96 µM) | 2 (≈ 5.93 µM) | 4 (≈ 11.9 µM) |  | 1 (≈ 2.96 µM) | 2 (≈ 5.93 µM) |  |  | 0.5 (≈ 1.48 µM) | 2 (≈ 5.93 µM) | 0.5 (≈ 1.48 µM) | 2 (≈ 5.93 µM) | 0.5 (≈ 1.48 µM) | 2 (≈ 5.93 µM) | 1 (≈ 2.96 µM) | 2 (≈ 5.93 µM) | 0.5 (≈ 1.48 µM) | 1 (≈ 2.96 µM) | 
5 | CN(C)c1ccc(O)c2c1C[C@H]1C[C@H]3[C@H](N(C)C)C(O)=C(C(N)=O)C(=O)[C@@]3(O)C(O)=C1C2=O [MINOCYCLINE] | 16 (≈ 35 µM) | 64 (≈ 140 µM) | 8 (≈ 17.5 µM) | 16 (≈ 35 µM) |  |  | 16 (≈ 35 µM) | 32 (≈ 69.9 µM) |  |  | 4 (≈ 8.74 µM) | 8 (≈ 17.5 µM) | 8 (≈ 17.5 µM) | 32 (≈ 69.9 µM) | 4 (≈ 8.74 µM) | 8 (≈ 17.5 µM) | 8 (≈ 17.5 µM) | 16 (≈ 35 µM) | 4 (≈ 8.74 µM) | 8 (≈ 17.5 µM) | 
6 | CN[C@H](CC(C)C)C(=O)N[C@H]1C(=O)N[C@@H](CC(N)=O)C(=O)N[C@H]2C(=O)N[C@H]3C(=O)N[C@H](C(=O)N[C@H](C(=O)O)c4cc(O)cc(O)c4-c4cc3ccc4O)[C@H](O)c3ccc(c(Cl)c3)Oc3cc2cc(c3O[C@@H]2O[C@H](CO)[C@@H](O)[C@H](O)[C@H]2O[C@H]2C[C@](C)(N)[C@H](O)[C@H](C)O2)Oc2ccc(cc2Cl)[C@H]1O [VANCOMYCIN] | 2 (≈ 1.38 µM) | 4 (≈ 2.76 µM) | 1 (≈ 0.69 µM) | 2 (≈ 1.38 µM) | 64 (≈ 44.2 µM) | 256 (≈ 177 µM) | 32 (≈ 22.1 µM) | 64 (≈ 44.2 µM) | 1 (≈ 0.69 µM) | 2 (≈ 1.38 µM) | 1 (≈ 0.69 µM) | 2 (≈ 1.38 µM) | 1 (≈ 0.69 µM) | 2 (≈ 1.38 µM) | 1 (≈ 0.69 µM) | 2 (≈ 1.38 µM) | 1 (≈ 0.69 µM) | 2 (≈ 1.38 µM) | 0.5 (≈ 0.345 µM) | 1 (≈ 0.69 µM) | 
